Measurements reported in patent US7265131B2, “Isoquinolinone derivatives and their use as therapeutic agents” (Exelixis, Inc., priority 2002, dated 2007).

Molecular target: T1, LXR β (Homo sapiens, UniProt P55055)
T1 construct: comprising full-length LXR α (pCMX-hLXR α), LXR β (pCMX-hLXR β), or RXR α (pCMX-RXR); expressed in transfected cells; host or cells: CV-1 African Green Monkey kidney cells, transient transfection
T1 sequence (P55055 1-460): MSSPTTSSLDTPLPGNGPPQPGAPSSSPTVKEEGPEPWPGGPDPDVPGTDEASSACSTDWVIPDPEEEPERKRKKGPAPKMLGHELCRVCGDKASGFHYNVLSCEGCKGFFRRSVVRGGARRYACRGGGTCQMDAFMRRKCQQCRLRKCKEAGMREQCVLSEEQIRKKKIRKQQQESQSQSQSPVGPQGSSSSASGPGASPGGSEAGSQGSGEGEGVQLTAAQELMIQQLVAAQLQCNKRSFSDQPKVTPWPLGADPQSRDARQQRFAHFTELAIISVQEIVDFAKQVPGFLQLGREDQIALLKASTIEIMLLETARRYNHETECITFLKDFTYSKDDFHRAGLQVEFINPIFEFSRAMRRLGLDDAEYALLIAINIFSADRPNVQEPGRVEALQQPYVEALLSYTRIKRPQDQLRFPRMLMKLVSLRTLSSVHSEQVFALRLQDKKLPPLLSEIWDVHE
T1 sequence (P19793 1-462 partner): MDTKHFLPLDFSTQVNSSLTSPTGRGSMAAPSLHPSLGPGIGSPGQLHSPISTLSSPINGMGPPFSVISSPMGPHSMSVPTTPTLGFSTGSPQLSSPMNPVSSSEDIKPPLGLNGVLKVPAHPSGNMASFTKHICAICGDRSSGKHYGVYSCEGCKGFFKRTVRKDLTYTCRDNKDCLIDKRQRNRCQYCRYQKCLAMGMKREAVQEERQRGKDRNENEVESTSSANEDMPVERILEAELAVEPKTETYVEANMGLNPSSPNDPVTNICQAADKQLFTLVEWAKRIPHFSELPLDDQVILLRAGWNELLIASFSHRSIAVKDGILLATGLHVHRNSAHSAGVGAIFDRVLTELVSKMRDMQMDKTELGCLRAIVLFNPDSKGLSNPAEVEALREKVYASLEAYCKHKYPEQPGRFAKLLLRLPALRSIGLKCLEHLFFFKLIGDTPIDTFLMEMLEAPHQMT
Assay: LXR/LXRE co-transfection assay (luciferase reporter, CV-1 cells)
Assay type: cell-based
Settings: for Emax: CV-1, average percent efficacy, relative to control N-(3-((4-fluorophenyl)-(naphthalene-2-sulfonyl)amino)propyl)-2,2-dimethylpropionamide, read-out: % Eff(b); for EC50: average EC50 for agonism, cotransfection assay, CV-1 cells
Text: To measure the ability of compounds to activate or inhibit the transcriptional activity of LXR in a cell based assay, the co-transfection assay was used. It has been shown that LXR functions as a heterodimer with RXR. For the co-transfection assay, expression plasmids for LXR and RXR are introduced via transient transfection into mammalian cells along with a luciferase reporter plasmid that contains one copy of a DNA sequence that is bound by LXR-RXR heterodimers (LXRE; Willy, P. et al. 1995). Treatment of transfected cells with an LXR agonist increases the transcriptional activity of LXR, which is measured by an increase in luciferase activity.
1. CV-1 African Green Monkey Kidney Cells
2. Co-transfection expression plasmids, comprising full-length LXR α (pCMX-hLXR α), LXR β (pCMX-hLXR β), or RXR α (pCMX-RXR), reporter plasmid (LXREx1-Tk-Luciferase), and control (pCMX-Galactosidase expression vector) (Willey et al. Genes & Development 9 1033-1045 (1995)).
CV-1 cells were prepared 24 hours prior to the experiment by plating them into T-175 flasks or 500 cm^2 dishes in order to achieve 70-80% confluency on the day of the transfection. The number of cells to be transfected was determined by the number of plates to be screened. Each 384 well plate requires 1.92×10^6 cells or 5000 cells per well. DNA Transfection Reagent was prepared by mixing the required plasmid DNAs with a cationic lipid transfection reagent FuGENE6 (Roche) by following the instructions provided with the reagents. Optimal DNA amounts were determined empirically per cell line and size of vessel to be transfected. 10-12 mL of media was added to the DNA Transfection Reagent and this mixture was added to the cells after aspirating media from the T175 cm^2 flask. Cells were then incubated at least 5 hours at 37° C. to prepare screening cells.
Luciferase assay reagent was prepared by combining before use (per 10 mL):
Assay plates were prepared by dispensing 5 μL of compound per well of a 384 well plate to achieve final compound concentration of 10 μM and no more than 1% DMSO. Media was removed from the screening cells, the cells trypsinized, harvested cells by centrifugation, counted, and plated at a density of approximately 5000 cells per well in the 384 well assay plate prepared above in a volume of about 45 μL. Assay plates containing both compounds and screening cells (50 μL in total volume) were incubated for 20 hours at 37° C.
After incubation with compounds, media was removed from the cells and lysis buffer (30 μuL/well) added. After 30 minutes at ambient temperature, luciferase assay buffer (30 μL/well) was added and the assay plates read on a luminometer (PE Biosystems Northstar reader with on-board injectors, or equivalent). Plates were read immediately after addition of luciferase assay buffer.
The LXR/LXRE co-transfection assay can be used to establish the EC50/IC50 values for potency and percent activity or inhibition for efficacy. Efficacy defines the activity of a compound relative to a high control ((N-(3-((4-fluorophenyl)-(naphthalene-2-sulfonyl)amino)propyl)-2,2-dimethylpropionamide)) or a low control (DMSO/vehicle). The dose response curves are generated from an 8 point curve with concentrations differing by ½ LOG units. Each point represents the average of 4 wells of data from a 384 well plate.
The data from this assay is fitted to the following equation, from the EC50 value may be solved: Y=Bottom+(Top-Bottom)/(1+10^((logEC50-X*HillSlope))
The EC50/IC50 is therefore defined as the concentration at which an agonist or antagonist elicits a response that is half way between the Top (maximum) and Bottom (baseline) values. The EC50/IC50 values represented are the averages of at least 3 independent experiments. […]

| SMILES | Emax | EC50 |
| --- | --- | --- |
| Cc1ccc(Cn2c(C#CC(C)(C)O)cc3ccccc3c2=O)c(C)c1 [2-(2,4-dimethylbenzyl)-3-(3-hydroxy-3-methylbut-1-ynyl)-2H-isoquinolin-1-one] | 40 to 90% | > 0.5 µM |
| O=c1c2c(Cl)cccc2cc(-c2cc(-c3cc(C(F)(F)F)cc(C(F)(F)F)c3)co2)n1Cc1ccc(F)cc1F [3-[4-(3,5-bis-trifluoromethylphenyl)furan-2-yl]-8-chloro-2-(2,4-difluorobenzyl)-2H-isoquinolin-1-one] | > 90% | 0.01 to 0.15 µM |
| Nc1ccc(-c2coc(-c3cc4cccc(Cl)c4c(=O)n3Cc3ccc(F)cc3F)c2)cc1C(F)(F)F [3-[4-(4-amino-3-trifluoromethylphenyl)furan-2-yl]-8-chloro-2-(2,4-difluorobenzyl)-2H-isoquinolin-1-one] | > 90% | 0.01 to 0.15 µM |
| O=c1c2c(Cl)cccc2cc(-c2ccc(Oc3cnccn3)cc2)n1Cc1ccc(F)cc1F [8-chloro-2-(2,4-difluorobenzyl)-3-[4-(pyrazin-2-yloxy)phenyl]-2H-isoquinolin-1-one] | > 90% | 0.01 to 0.15 µM |
| CS(=O)(=O)c1ccc(-c2ccc(-c3cc4cccc(Cl)c4c(=O)n3Cc3ccc(F)cc3F)s2)cc1 [8-chloro-2-(2,4-difluorobenzyl)-3-[5-(4-methanesulfonylphenyl)thiophen-2-yl]-2H-isoquinolin-1-one] | > 90% | < 0.01 µM |
| O=c1c2c(Cl)cccc2cc(-c2ccc(Oc3ccccc3)cc2)n1CC1CCCCC1 [8-chloro-2-cyclohexylmethyl-3-(4-phenoxyphenyl)-2H-isoquinolin-1-one] | > 90% | 0.15 to 0.5 µM |
| CCOc1ccc(-c2csc(-c3cc4cccc(Cl)c4c(=O)n3Cc3ccc(F)cc3F)c2)cc1Cl [8-chloro-3-[4-(3-chloro-4-ethoxyphenyl)thiophen-2-yl]-2-(2,4-difluorobenzyl)-2H-isoquinolin-1-one] | > 90% | 0.01 to 0.15 µM |

Further lines, results first:

| Emax | EC50 | SMILES |
| --- | --- | --- |
| > 90% | 0.01 to 0.15 µM | Cc1ccc(Cn2c(-c3ccc(Oc4ccccc4)cc3)cc3ccccc3c2=O)c(C)c1 [2-(2,4-dimethylbenzyl)-3-(4-phenoxyphenyl)-2H-isoquinolin-1-one] |
| 40 to 90% | > 0.5 µM | Cc1cccc(-c2cc3ccccc3c(=O)n2Cc2ccc(C)cc2C)c1 [2-(2,4-dimethylbenzyl)-3-m-tolyl-2H-isoquinolin-1-one] |
| 40 to 90% | > 0.5 µM | Cc1ccc(Cn2c(-c3ccsc3)cc3ccccc3c2=O)c(C)c1 [2-(2,4-dimethylbenzyl)-3-thiophen-3-yl-2H-isoquinolin-1-one] |
| 40 to 90% | > 0.5 µM | Cc1cccc(-c2cc3ccccc3c(=O)n2Cc2ccccc2)c1 [2-benzyl-3-m-tolyl-2H-isoquinolin-1-one] |
| > 90% | 0.01 to 0.15 µM | O=c1c2c(Cl)cccc2cc(-c2ccc(Oc3ccccc3)cc2)n1Cc1ccc(F)cc1F [8-chloro-2-(2,4-difluorobenzyl)-3-(4-phenoxyphenyl)-2H-isoquinolin-1-one] |
| > 90% | 0.15 to 0.5 µM | O=c1c2c(Cl)cccc2cc(-c2ccc(Oc3ccccc3)cc2)n1Cc1cccs1 [8-chloro-3-(4-phenoxyphenyl)-2-thiophen-2-ylmethyl-2H-isoquinolin-1-one] |
| 40 to 90% | 0.01 to 0.15 µM | Cc1ccc(Cn2c(-c3ccc(Oc4ccccc4)cc3)cc3cccc(C)c3c2=O)cc1 [8-methyl-2-(4-methylbenzyl)-3-(4-phenoxyphenyl)-2H-isoquinolin-1-one] |
